What follows are compounds tested against T1, purified human HDAC6 (Homo sapiens, UniProt Q9UBN7) (assay: HDAC6 Enzyme Assay). Details: enzyme inhibition, substrate Ac-Arg-Gly-Lys(Ac)-AMC, 1 hour at 30° C.
T1 construct: purchased BPS Bioscience 5006
T1 sequence (Q9UBN7 1-1215): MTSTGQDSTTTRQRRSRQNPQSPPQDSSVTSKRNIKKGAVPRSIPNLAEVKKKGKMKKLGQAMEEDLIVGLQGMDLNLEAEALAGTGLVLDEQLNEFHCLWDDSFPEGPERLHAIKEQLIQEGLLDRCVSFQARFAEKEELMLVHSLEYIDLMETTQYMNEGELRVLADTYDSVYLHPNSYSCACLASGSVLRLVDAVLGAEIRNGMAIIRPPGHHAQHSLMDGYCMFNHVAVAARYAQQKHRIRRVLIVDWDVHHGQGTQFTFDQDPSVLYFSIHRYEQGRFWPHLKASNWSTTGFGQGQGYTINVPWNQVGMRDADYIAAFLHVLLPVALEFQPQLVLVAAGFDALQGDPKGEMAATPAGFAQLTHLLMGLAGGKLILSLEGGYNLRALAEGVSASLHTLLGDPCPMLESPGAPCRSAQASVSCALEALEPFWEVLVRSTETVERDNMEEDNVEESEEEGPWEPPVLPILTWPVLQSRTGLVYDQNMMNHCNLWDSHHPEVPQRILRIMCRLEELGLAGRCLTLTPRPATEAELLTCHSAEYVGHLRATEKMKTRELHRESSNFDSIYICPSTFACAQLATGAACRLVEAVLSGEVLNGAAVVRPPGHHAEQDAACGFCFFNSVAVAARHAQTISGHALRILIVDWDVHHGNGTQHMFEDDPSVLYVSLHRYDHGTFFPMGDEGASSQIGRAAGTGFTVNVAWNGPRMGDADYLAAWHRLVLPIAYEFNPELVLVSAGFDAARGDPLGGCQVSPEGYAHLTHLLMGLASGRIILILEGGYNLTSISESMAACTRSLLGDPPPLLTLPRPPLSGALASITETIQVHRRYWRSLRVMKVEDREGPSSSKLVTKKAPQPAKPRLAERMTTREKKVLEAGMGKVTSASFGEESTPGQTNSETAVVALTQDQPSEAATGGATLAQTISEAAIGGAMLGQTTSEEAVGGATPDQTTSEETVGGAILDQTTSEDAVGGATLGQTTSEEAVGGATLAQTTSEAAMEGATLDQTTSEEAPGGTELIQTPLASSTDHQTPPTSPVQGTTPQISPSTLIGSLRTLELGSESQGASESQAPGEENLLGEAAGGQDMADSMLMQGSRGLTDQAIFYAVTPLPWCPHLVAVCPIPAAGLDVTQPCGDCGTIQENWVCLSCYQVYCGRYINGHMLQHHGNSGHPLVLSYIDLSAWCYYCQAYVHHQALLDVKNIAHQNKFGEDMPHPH
Type: biochemical
Experimental: To measure the inhibition of HDAC6 activity, purified human HDAC6 (BPS Bioscience; Cat. No. 5006) is incubated with substrate Ac-Arg-Gly-Lys(Ac)-AMC peptide (Bachem Biosciences; Cat. No. I-1925) for 1 hour at 30° C. in the presence of test compounds or vehicle DMSO control. The reaction is stopped with the HDAC inhibitor trichostatin A (Sigma; Cat. No. T8552) and the amount of Arg-Gly-Lys-AMC generated is quantitated by digestion with trypsin (Sigma; Cat. No. T1426) and subsequent measurement of the amount of AMC released using a fluorescent plate reader (Pherastar; BMG Technologies) set at Ex 340 nm and Em 460 nm. Concentration response curves are generated by calculating the fluorescence increase in test compound-treated samples relative to DMSO-treated controls, and enzyme inhibition (IC50) values are determined from those curves.

| Compound | IC50 [nM] |
| --- | --- |
| O=C(NO)c1cc2c(s1)CN(C(=O)c1ccc(F)cc1)CC2 [Compound 182, 6-(4-fluorobenzoyl)-N-hydroxy-4,5,6,7-tetrahydrothieno[2,3-c]pyridine-2-carboxamide] | 50 to 100 |
| Cc1cnc(C(=O)N2CCc3sc(C(=O)NO)cc3C2)cn1 [Compound 29, N-hydroxy-5-(5-methylpyrazine-2-carbonyl)-4,5,6,7-tetrahydrothieno[3,2-c]pyridine-2-carboxamide] | 50 to 100 |
| CC(C)(C)C(=O)N1CCc2cc(C(=O)NO)sc2C1 [Compound 1, 6-(2,2-dimethylpropanoyl)-N-hydroxy-4,5,6,7-tetrahydrothieno[2,3-c]pyridine-2-carboxamide] | < 50 |
| Cc1oc(S(=O)(=O)N2CCCCC2)cc1C(=O)N1CCc2cc(C(=O)NO)sc2C1 [Compound 16, N-hydroxy-6-[2-methyl-5-(piperidin-1-ylsulfonyl)-3-furoyl]-4,5,6,7-tetrahydrothieno[2,3-c]pyridine-2-carboxamide] | < 50 |
| O=C(NO)c1cc2c(s1)CN(C(=O)c1cscn1)CC2 [Compound 146, N-hydroxy-6-(1,3-thiazol-4-ylcarbonyl)-4,5,6,7-tetrahydrothieno[2,3-c]pyridine-2-carboxamide] | < 50 |
| Cc1onc(-c2ccccc2)c1NC(=O)N1CCc2cc(C(=O)NO)sc2C1 [Compound 132, N^2-hydroxy-N^6-(5-methyl-3-phenylisoxazol-4-yl)-4,7-dihydrothieno[2,3-c]pyridine-2,6(5H)-dicarboxamide] | < 50 |
| Nc1[nH]ncc1C(=O)N1CCc2cc(C(=O)NO)sc2C1 [Compound 159, 6-[(5-amino-1H-pyrazol-4-yl)carbonyl]-N-hydroxy-4,5,6,7-tetrahydrothieno[2,3-c]pyridine-2-carboxamide] | < 50 |
| O=C(NO)c1cc2c(s1)CN(C(=O)c1cccc3cccnc13)CC2 [Compound 99, N-hydroxy-6-(quinoline-8-carbonyl)-4,5,6,7-tetrahydrothieno[2,3-c]pyridine-2-carboxamide] | < 50 |
| Cc1ccc(CNC(=O)N2CCc3cc(C(=O)NO)sc3C2)cc1 [Compound 103, N2-hydroxy-N-6-(4-methylbenzyl)-4,5-dihydrothieno[2,3-c]pyridine-2,6(5H)-dicarboxamide] | < 50 |
| O=C(NO)c1cc2c(s1)CN(C(=O)C13CC4CC(CC(C4)C1)C3)CC2 [Compound 14, 6-[1-adamantylcarbonyl]-N-hydroxy-4,5,6,7-tetrahydrothieno[2,3-c]pyridine-2-carboxamide] | < 50 |
| Cc1cc(C(=O)N2CCc3cc(C(=O)NO)sc3C2)ccc1F [Compound 51, 6-(4-fluoro-3-methylbenzoyl)-N-hydroxy-4,5,6,7-tetrahydrothieno[2,3-c]pyridine-2-carboxamide] | < 50 |
| O=C(NO)c1cc2c(s1)CN(C(=O)NC1CCCCC1)CC2 [Compound 76, N^6-cyclohexyl-N^2-hydroxy-4,7-dihydrothieno[2,3-c]pyridine-2,6(5H)-dicarboxamide] | < 50 |
| Cn1cccc1C(=O)N1Cc2cc(C(=O)NO)sc2C(C)(C)C1 [Compound 210, N-hydroxy-7,7-dimethyl-5-[(1-methyl-1H-pyrrol-2-yl)carbonyl]-4,5,6,7-tetrahydrothieno[3,2-c]pyridine-2-carboxamide] | > 1000 |
| Cc1c(C(=O)NO)sc2c1CN(C(=O)c1ccc(Cl)cc1)CC2 [Compound 193, 5-(4-chlorobenzoyl)-N-hydroxy-3-methyl-4,5,6,7-tetrahydrothieno[3,2-c]pyridine-2-carboxamide] | < 50 |
| Cc1cc(C(=O)N2CCc3cc(C(=O)NO)sc3C2)c(C)o1 [Compound 178, 6-(2,5-dimethyl-3-furoyl)-N-hydroxy-4,5,6,7-tetrahydrothieno[2,3-c]pyridine-2-carboxamide] | 50 to 100 |
| CC1(C)CN(C(=O)c2sc3ccccc3c2Cl)Cc2cc(C(=O)NO)sc21 [Compound 192, 5-[(3-chloro-1-benzothien-2-yl)carbonyl]-N-hydroxy-7,7-dimethyl-4,5,6,7-tetrahydrothieno[3,2-c]pyridine-2-carboxamide] | > 1000 |
| Cc1c(C(=O)NO)sc2c1CN(C(=O)c1cccn1C)CC2 [Compound 194, N-hydroxy-3-methyl-5-[(1-methyl-1H-pyrrol-2-yl)carbonyl]-4,5,6,7-tetrahydrothieno[3,2-c]pyridine-2-carboxamide] | < 50 |
| O=C(NO)c1cc2c(s1)CN(C(=O)CSc1cccc(C(F)(F)F)c1)CC2 [Compound 89, N-hydroxy-6-({[3-(trifluoromethyl)phenyl]sulfanyl}acetyl)-4,5,6,7-tetrahydrothieno[2,3-c]pyridine-2-carboxamide] | < 50 |
| CCCCS(=O)(=O)N1CCc2cc(C(=O)NO)sc2C1 [Compound 19, 6-(butylsulfonyl)-N-hydroxy-4,5,6,7-tetrahydrothieno[2,3-c]pyridine-2-carboxamide] | < 50 |
| O=C(NO)c1cc2c(s1)CN(Cc1cccc3nsnc13)CC2 [Compound 25, 6-(2,1,3-benzothiadiazol-4-ylmethyl)-N-hydroxy-4,5,6,7-tetrahydrothieno[2,3-c]pyridine-2-carboxamide] | < 50 |
| CCn1nc(C)cc1C(=O)N1CCc2cc(C(=O)NO)sc2C1 [Compound 149, 6-[(1-ethyl-3-methyl-1H-pyrazol-5-yl)carbonyl]-N-hydroxy-4,5,6,7-tetrahydrothieno[2,3-c]pyridine-2-carboxamide] | 50 to 100 |
| CCC(C(=O)N1CCc2cc(C(=O)NO)sc2C1)(c1ccccc1)c1ccccc1 [Compound 9, 6-(2,2-diphenylbutanoyl)-N-hydroxy-4,5,6,7-tetrahydrothieno[2,3-c]pyridine-2-carboxamide] | 50 to 100 |
| O=C(NO)c1cc2c(s1)CCN(S(=O)(=O)c1ccc(C(F)(F)F)cc1)C2 [Compound 34, N-hydroxy-5-{[4-(trifluoromethyl)phenyl]sulfonyl}-4,5,6,7-tetrahydrothieno[3,2-c]pyridine-2-carboxamide] | < 50 |
| CC(C)(C(=O)N1CCc2cc(C(=O)NO)sc2C1)c1ccc(Cl)cc1 [Compound 4, 6-[2-(4-chlorophenyl)-2-methylpropanoyl]-N-hydroxy-4,5,6,7-tetrahydrothieno[2,3-c]pyridine-2-carboxamide] | < 50 |
| CC(C)(C)OC(=O)N1CCc2sc(C(=O)NO)cc2C1 [Compound 212, tert-butyl 2-[(hydroxyamino)carbonyl]-6,7-dihydrothieno[3,2-c]pyridine-5(4H)-carboxylate] | < 50 |
| CC(C)(C)c1ccc(C(=O)N2CCc3cc(C(=O)NO)sc3C2)cc1 [Compound 64, 6-(4-tert-butylbenzoyl)-N-hydroxy-4,5,6,7-tetrahydrothieno[2,3-c]pyridine-2-carboxamide] | < 50 |
| CCCCc1ccc(NC(=O)N2CCc3cc(C(=O)NO)sc3C2)cc1 [Compound 169, N^6-(4-butylphenyl)-N^2-hydroxy-4,7-dihydrothieno[2,3-c]pyridine-2,6(5H)-dicarboxamide] | < 50 |
| O=C(NO)c1cc2c(s1)CN(C(=O)CC1c3ccccc3-c3ccccc31)CC2 [Compound 17, 6-(9H-fluoren-9-ylacetyl)-N-hydroxy-4,5,6,7-tetrahydrothieno[2,3-c]pyridine-2-carboxamide] | > 1000 |
| Cc1c(C(=O)NO)sc2c1CN(C(=O)c1cc3ccccc3o1)CC2 [Compound 216, 5-(1-benzofuran-2-ylcarbonyl)-N-hydroxy-3-methyl-4,5,6,7-tetrahydrothieno[3,2-c]pyridine-2-carboxamide] | 50 to 100 |
| O=C(NO)c1cc2c(s1)CCN(C(=O)C13CC4CC(CC(C4)C1)C3)C2 [Compound 33, 5-(adamantan-1-ylcarbonyl)-N-hydroxy-4,5,6,7-tetrahydrothieno[3,2-c]pyridine-2-carboxamide] | < 50 |

— US8624040B2, “Substituted hydroxamic acids and uses thereof” (Millennium Pharmaceuticals, Inc., priority 2009, dated 2014)
